# Data published in patent publication US20160067232A1, “METHODS FOR TREATING A STROKE-RELATED SENSORIMOTOR IMPAIRMENT USING AMINOPYRIDINES” (Acorda Therapeutics, Inc., priority 2011, published 2016).
# Where “and” joins values, the source holds several entries; their conditions need not be identical. Identical values can stand only once.
# How the values were obtained:
# [1] = Body weight (g) of MCAO rats (Example 2); conditions: individual animals and Mean (N=15), listed as 4-AP
# [2] = tested on: rats with middle cerebral artery occlusion (MCAO); test: Forelimb placing test, MCAO rats, double crossover study (Example 2); assay type: in vivo, Sprague Dawley rat
# Procedure: 4-AP was evaluated for its ability to promote functional sensorimotor improvement following ischemic stroke in rats with stable motor deficits at times remote from their ischemic events. The animal model mimics the conditions in human ischemic stroke and is produced by middle cerebral artery occlusion (MCAO), which results in extensive infarction in cerebral cortex and striatum, including the cortical spinal tract (white matter).
# In particular, the MCAO model in Sprague Dawley rats that was utilized in the experiments presented below mimics the conditions in human ischemic stroke. In this model, focal cerebral infarcts were made by permanent occlusion of the proximal right middle cerebral artery (MCA) using a modification of the method of Tamura et al. (No To Shinkei 1986; 38:747-51). Briefly, the temporalis muscle was bisected and reflected through an incision made midway between the eye and the ear canal. The proximal MCA was exposed through a subtemporal craniectomy without removing the zygomatic arch and without transecting the facial nerve.
# Dosing and Treatment: Rats were treated in accordance with the dosing schedule shown in Tables 2A, 2B, 3 and FIG. 2, with each Phase being a two week period of time. A solution of 4-AP was used in this experiment. Dosing was started at 4 weeks after ischemic event. 4-aminopyridine was dissolved in water for injection (WFI, Cellgro) and sterile filtered. Final concentrations of 0.315 mg/mL or 1.0 mg/mL of 4-aminopyridine were delivered at 2 mL/kg by gastric gavage, resulting in final doses of 0.63 mg/kg and 2 mg/kg respectively. Vehicle control treatment was WFI delivered at 2 mL/kg by gastric gavage. This study was divided into three treatment phases (1-3) with each randomized cohort of animals receiving a different dose level during each of the treatment phases. Starting on day 30 after MCAO (Day 30, start of phase 1), the animals received gavage dosing of solutions (2 mL/kg) approximately 12 hours apart, for a total of five doses. The same schedule was repeated with different treatment on Day 44 and Day 58 for phase 2 and 3 of the study, respectively. Animals were not treated during the 10 days between phases (washout period).
# Treatment groups: Dosing was started 4 weeks after MCAO surgery. During these 4 weeks, weekly behavioral assessments, as defined below, were performed. Two dose levels of 4-AP plus vehicle control were assessed, with treatment starting at 4 weeks after ischemic event. […] Following the final behavioral assessment, drug was withdrawn for 10 or 11 days, behavior was re-assessed, and then animals were re-challenged with a cross-over treatment (Phase 2 of Table 2B) as described in Tables 2A, 2B and 3, followed by the same behavioral testing and dosing regimen. […]
smiles,measurement,setting,value
Nc1ccncc1 [4-aminopyridine],"Weight (g) Group 1, D30","[1]; Group 1, D30, treatment phase 1 (high-dose 4-AP)",425 g (2×) and 450 g and 435 g and 490 g and 544 g and 470 g and 512 g and 434 g and 482 g and 480 g and 360 g and 422 g and 496 g and 372 g
same,"Weight (g) Group 1, D32","[1]; Group 1, D32, treatment phase 1 (high-dose 4-AP)",411 g and 441 g and 417 g and 470 g and 515 g and 454 g and 496 g and 422 g and 453 g and 461 g and 351 g and 404 g and 412 g and 477 g and 360 g
same,"Weight (g) Group 1, D44","[1]; Group 1, D44, treatment phase 2 (low-dose 4-AP)",455 g and 501 g and 447 g and 511 g and 566 g and 480 g and 545 g and 454 g and 502 g (2×) and 400 g and 440 g and 456 g and 494 g and 390 g
same,"Weight (g) Group 1, D46","[1]; Group 1, D46, treatment phase 2 (low-dose 4-AP)",448 g and 490 g (2×) and 440 g and 494 g (2×) and 570 g and 488 g and 552 g and 457 g and 491 g and 386 g and 442 g and 446 g and 379 g
same,"Weight (g) Group 2, D30","[1]; Group 2, D30, treatment phase 1 (low-dose 4-AP)",474 g and 380 g (2×) and 414 g and 444 g and 410 g and 480 g (2×) and 540 g and 475 g and 512 g and 434 g and 420 g and 416 g and 431 g
same,"Weight (g) Group 2, D32","[1]; Group 2, D32, treatment phase 1 (low-dose 4-AP)",473 g and 369 g and 410 g and 426 g and 406 g and 455 g and 541 g and 467 g and 508 g and 476 g and 424 g and 403 g and 412 g and 374 g and 428 g
same,"Weight (g) Group 2, D58","[1]; Group 2, D58, treatment phase 3 (high-dose 4-AP)",530 g and 425 g and 461 g and 477 g and 455 g and 540 g and 635 g and 535 g and 570 g and 546 g and 499 g and 456 g and 470 g and 432 g and 483 g
same,"Weight (g) Group 2, D60","[1]; Group 2, D60, treatment phase 3 (high-dose 4-AP)",517 g and 410 g and 444 g (2×) and 460 g and 441 g and 519 g and 614 g and 508 g and 535 g and 530 g and 488 g and 447 g and 417 g and 471 g
same,"Weight (g) Group 3, D44","[1]; Group 3, D44, treatment phase 2 (high-dose 4-AP)",460 g and 461 g and 469 g and 451 g and 423 g and 462 g and 463 g (2×) and 532 g and 572 g and 538 g and 442 g and 445 g (2×) and 453 g
same,"Weight (g) Group 3, D46","[1]; Group 3, D46, treatment phase 2 (high-dose 4-AP)",440 g and 436 g (2×) and 455 g and 435 g (2×) and 402 g and 442 g and 502 g and 567 g and 497 g and 446 g and 430 g (2×) and 412 g
same,"Weight (g) Group 3, D58","[1]; Group 3, D58, treatment phase 3 (low-dose 4-AP)",475 g and 486 g and 485 g and 467 g and 440 g and 472 g and 490 g and 550 g and 625 g and 573 g and 492 g and 462 g and 469 g and 476 g and 461 g
same,"Weight (g) Group 3, D60","[1]; Group 3, D60, treatment phase 3 (low-dose 4-AP)",466 g and 479 g and 484 g (2×) and 463 g and 430 g and 465 g and 550 g and 613 g and 549 g and 468 g and 453 g and 456 g and 470 g and 447 g
same,"Forelimb function, low dose compared to vehicle, first mixed model","[2]; 0.63 mg/kg b.i.d. p.o., level 0.05",didn't show statistical significant improvement
same,"Forelimb function, low dose compared to vehicle, second mixed model","[2]; 0.63 mg/kg b.i.d. p.o., p<0.0001",significant difference
same,"Forelimb function, high dose compared to low dose and vehicle","[2]; 2 mg/kg b.i.d. p.o., first mixed model, p=0.0334 vs low, p=0.001 vs vehicle",significantly improved the forelimb function
same,Effect on forelimb function (FIG. 3),"[2]; low or high dose, 4 weeks post ischemic brain injury, dose-responsive, reversible",effective to improve forelimb function
